Here are results for eleven compounds from ChEMBL document CHEMBL1201862, “PubChem BioAssay data set” (2004).

Common to all, as to assay: inhibition of tumour cell growth, NCI panel, 48 h
Assay [1] concerns 786-0.
Assay [2] relates to HCT-116.
Assay [3] concerns HOP-62.
Assay [4] relates to HOP-92.
Assay [5] has as its system HT-29.
Assay [6] concerns KM12.
The subject of assay [7] is M14.
Assay [8] deals with MDA-MB-231.
Assay [9] relates to MDA-MB-435.
Assay [10] relates to MDA-N.
For assay [11], the system named is NCI-H23.
Assay [12] concerns NCI-H460.
Assay [13] has as its system PC-3.
Assay [14] deals with RXF 393.
Assay [15] relates to SF-539.
The subject of assay [16] is SK-MEL-2.
Assay [17] concerns SW-620.
The test system of assay [18] is T47D.
Assay [19] concerns EKVX.
Assay [20] deals with SNB-75.

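1) Cells in 96-well plates. 2) Compound, 48 h, 5 concentrations. 3) Linear interpolation between surrounding doses. 4) Unreached endpoint = highest concentration. GI50: concentration for 50% inhibition of growth.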 The source made the active and inactive calls. Cut-off read from the data, not from the text of the source: active = GI50 up to about 1.1 µM and inactive = higher. Residues, ends and D or L forms follow the SMILES beside them. Where only a bound is given, the exact number is not on record here.

As for `COc1cc(C=O)cc(/C=N/N=C/c2ccccc2O)c1O`, the GI50 was 19.2 µM (inactive) in assay [1]; 26.1 µM (inactive) in [2]; 30.7 µM (inactive) in assay [3]; 3.22 µM (inactive) in [4]; 34.1 µM (inactive) in [5]; 76.9 µM (inactive) in [6]. For the same compound, the GI50 in assay [7] was 15.6 µM (inactive); in [8], 23.7 µM (inactive); in assay [9] it was 23.9 µM (inactive); in [10], 25 µM (inactive); in assay [11], 23.6 µM (inactive); in [12], 31.4 µM (inactive). Besides, the GI50 in assay [13] is 12.1 µM (inactive); in assay [14], 37.3 µM (inactive); in [15], 4.73 µM (inactive); in [16], 17.3 µM (inactive); in assay [17] it was 62.2 µM (inactive); in assay [18], 4.71 µM (inactive).

Turning to `COc1ccc(/C=C2\N=C3NC(=O)C(N4CCCCC4)=C(N)N3C2=O)cc1`, the GI50 in assay [1], in assay [19], in assay [2], in [4], in assay [5] and in assay [6] was > 100 µM (inactive) throughout. The GI50 in [7], in assay [8], in [9], in assay [10], in assay [11] and in [14] was > 100 µM (inactive) throughout. Further, the GI50 was > 100 µM (inactive) in assay [15], 24.8 µM (inactive) in assay [20], > 100 µM (inactive) in [17] and > 100 µM (inactive) in [18].

With `Cc1nn(-c2ccccc2)c2nc3ccc(Cl)cc3c(-c3ccccc3)c12`, the GI50 in assay [1], in [19], in assay [2], in [3], in [4] and in assay [5] was > 100 µM (inactive) each time. The GI50 in assay [6], in assay [7], in assay [8], in assay [9], in assay [10] and in assay [11] was > 100 µM (inactive) each time. Further, the GI50 in assay [12], in assay [13], in assay [16], in [20], in assay [17] and in assay [18] was > 100 µM (inactive) each time.

`COc1ccc2nc3cc([N+](=O)[O-])ccc3c(Nc3ccc(S(=O)(=O)N=C(N)N)cc3)c2c1`: the GI50 in [1] was 20.1 µM (inactive); in assay [19], 15.2 µM (inactive); in assay [2] it was 11.9 µM (inactive); in assay [3] it was 27.2 µM (inactive); in assay [4] it was 11.5 µM (inactive); in assay [5], 22.1 µM (inactive). Also, the GI50 is 15.5 µM (inactive) in assay [6]; 30.5 µM (inactive) in [7]; 17.2 µM (inactive) in assay [8]; 39.9 µM (inactive) in assay [9]; 39.3 µM (inactive) in assay [10]; 26.8 µM (inactive) in [11]. Also, the GI50 in assay [12] is 9.82 µM (inactive); in assay [13], 12 µM (inactive); in assay [14], 40.1 µM (inactive); in [15], 24.1 µM (inactive); in [16], 18.5 µM (inactive); in assay [17], 36.8 µM (inactive). Further, the GI50 in assay [18] was 9.91 µM (inactive).

Consider `Cc1c(C(=O)C(=O)c2ccccc2)c(C)c(C(=O)C(=O)c2ccccc2)c(C)c1C(=O)C(=O)c1ccccc1`, for which the GI50 in assay [1], in assay [19], in [2], in [3], in assay [5] and in [6] was > 100 µM (inactive) in each case. Also, the GI50 in [7], in assay [8], in assay [9], in assay [10], in [12] and in assay [13] was > 100 µM (inactive) each time. Further, the GI50 in assay [15], in assay [20], in [17] and in [18] was > 100 µM (inactive) throughout.

With `COC(=O)c1c(C)cc(OC)c(C/C=C(\C)CCCc2coc(C=C(C)C)c2)c1OC`, the GI50 is > 100 µM (inactive) in assay [1]; > 100 µM (inactive) in assay [19]; > 100 µM (inactive) in assay [2]; > 100 µM (inactive) in assay [3]; > 100 µM (inactive) in assay [4]; 74.8 µM (inactive) in assay [5]. Further, the GI50 in [6], in assay [7], in [8], in assay [9], in assay [10] and in [11] was > 100 µM (inactive) each time. Further, the GI50 is > 100 µM (inactive) in assay [12]; > 100 µM (inactive) in assay [13]; 49 µM (inactive) in assay [15]; > 100 µM (inactive) in assay [16]; 21.3 µM (inactive) in [20]; > 100 µM (inactive) in assay [17]. Besides, the GI50 in [18] is 43 µM (inactive).

Regarding `OC(CCN1CCCCC1)(c1ccccc1)c1ccccc1` [PRIDINOL], the GI50 in assay [1] is > 100 µM (inactive); in assay [19], 79.6 µM (inactive); in assay [2] it was > 100 µM (inactive); in [3] it was > 100 µM (inactive); in assay [4] it was 32.4 µM (inactive); in [5], 55 µM (inactive). For the same compound, the GI50 was > 100 µM (inactive) in assay [6]; > 100 µM (inactive) in assay [7]; > 100 µM (inactive) in assay [8]; 82.8 µM (inactive) in assay [9]; > 100 µM (inactive) in assay [10]; > 100 µM (inactive) in assay [11]. For the same compound, the GI50 in assay [13], in assay [14], in assay [16], in [17] and in assay [18] was > 100 µM (inactive) throughout.

For `CCC(C)C(NC(=O)C1CCCN1)C(=O)NC(C(=O)NCC(=O)NC(CC(N)=O)C(=O)NC(CC(C)C)C(=O)NC(CC(C)C)C(=O)NC(CCCCN)C(N)=O)C(C)C` (centres undefined) (H-PIVGNLLK-NH2; configuration not given here), the GI50 in assay [1], in assay [19], in assay [2], in assay [3], in [4] and in assay [5] was > 75 µM (inactive) throughout. For the same compound, the GI50 in assay [6], in assay [7], in [8], in assay [9], in [10] and in assay [11] was > 75 µM (inactive) throughout. Further, the GI50 in assay [13], in assay [15], in [16], in assay [17] and in [18] was > 75 µM (inactive) throughout.

For the compound `CC(=O)N1c2ccccc2C23CCN4CC5=CCOC(O)C(C5CC42)C13` (centres undefined), the GI50 in assay [1], in [19], in [2], in [4], in [5] and in assay [6] was > 100 µM (inactive) in each case. Also, the GI50 in assay [7], in [8], in [9], in assay [10], in assay [11] and in assay [12] was > 100 µM (inactive) throughout. The GI50 in [13], in assay [15], in [16], in [20], in assay [17] and in assay [18] was > 100 µM (inactive) throughout.

`COC(=O)C(Cc1ccccc1)NP(=O)(O)OCC1OC(n2ccc(N)nc2=O)C(O)C1O` (centres undefined): the GI50 in assay [1], in [19], in [2], in [3], in assay [4] and in assay [5] was > 100 µM (inactive) in each case. In addition, the GI50 in assay [6], in [7], in [8], in [9], in assay [10] and in assay [11] was > 100 µM (inactive) each time. In addition, the GI50 in assay [12], in [13], in [15], in [16], in assay [20] and in assay [17] was > 100 µM (inactive) in each case. In assay [18], the GI50 was > 100 µM (inactive).

As for `C=C(C)[C@@H]1CC[C@]2(C(=O)O)CC[C@]3(C)[C@H](CCC4[C@@]5(C)CC[C@H](C(=O)/C=C/c6ccc(O)c(O)c6)C(C)(C)[C@@H]5CC[C@]43C)[C@@H]12` (some centres undefined), the GI50 was 4.35 µM (inactive) in assay [1]; 8.55 µM (inactive) in [19]; 2.77 µM (inactive) in [2]; 2.9 µM (inactive) in assay [3]; 2.2 µM (inactive) in assay [6]; 3.39 µM (inactive) in [7]. Further, the GI50 in assay [8] was 4.36 µM (inactive); in assay [9], 2.29 µM (inactive); in assay [10], 3.89 µM (inactive); in [11] it was 2.61 µM (inactive); in assay [12] it was 2.81 µM (inactive); in assay [13], 4.32 µM (inactive). Besides, the GI50 in assay [14] was 6 µM (inactive); in [15] it was 2.53 µM (inactive); in [16] it was 12.6 µM (inactive); in assay [20], 0.0513 µM (active); in [18], 5.14 µM (inactive).
